Test results reported in PubChem BioAssay AID1963848 (Molecular Pharmacology Branch, DTP, NCI, 2024).

Tested on: 379773-124-R-J2-PDC spheroid viability
Test: Anticancer human tumor 379773-124-R-J2-PDC patient-derived endometrial carcinoma cell line growth inhibition [POLQ]
Conditions: spheroids with HUVEC and MSC; for IC50: curve of first compound; for viability, T/C: stronger effect = lower value
Method: Multicellular complex tumor spheroid response to Polymerase (POL) inhibitors (novobiocin, ART-558, RP6685) in combination with a variety of drugs and investigational agents in selected tumor cell lines
The POL inhibitors (novobiocin, ART-558, and RP6685) were evaluated both individually and in combination with standard of care and investigational anticancer small molecules within a complex spheroid model of solid tumors. . Complex spheroids include a stromal component modeled by human endothelial cells (HUVEC) and fibroblasts modeled by human mesenchymal stem cells (MSCs). The concentration ranges selected for each drug and investigational agent were based upon clinically achievable concentrations if the clinical Cmax of the agent was known.
Compounds. The drugs and investigational agents: novobiocin (NSC847541), ART-558 (NSC835418), RP-6685 (NSC848927), peposertib (NSC802822), ceralasertib (NSC780249), elimusertib (NSC800525), camonsertib (NSC841442), AZD-1390 (NSC803789), olaparib (NSC753686), talazoparib (NSC767125), rucaparib (NSC756644), sotorasib (NSC818433), MRTX-1133 (NSC836407), SN-38 (NSC673596), topotecan (NSC609699), epotoside (NSC141540), doxorubicin (NSC123127), gemcitabine (NSC613327), 5-fluorouracil (NSC19893), paclitaxel (NSC125973), vemurafenib (NSC761431), MSA-2 (NSC828583), SN-011 (NSC837082), adavosertib (NSC754352), prexasertib (NSC758257), carboplatin (NSC241240) and oxaliplatin (NSC266046), were obtained from the National Cancer Institute (NCI) Developmental Therapeutics Program Chemical Repository (21). The FDA-approved anticancer drug set is available from the Developmental Therapeutics Program at https://dtp.cancer.gov/organization/dscb/obtaining/. […] The stock solutions were prepared in dimethyl sulfoxide (DMSO, Sigma-Aldrich, St. Louis, MO, cat. D2650), except for the platinum compounds which were prepared in saline (Quality Biological, Gaithersburg, MD, cat. 114-055-101), at 800-fold the tested concentration and stored at -70 degrees C prior to their use. All drugs and investigational agents were tested over a range starting from a high concentration at or near the clinical Cmax and decreasing in half-log increments. If the clinical Cmax for an agent had not been determined, the highest concentration tested was 10 microM, except for SN-38, which was tested at a high concentration of 1 microM.
Cell Culture. All cells were maintained in an incubator at 37 degrees C and 5% CO2 with 95% humidity. The PDC lines were cultured according to standard operating procedures established by the NCI PDMR (https://pdmr.cancer.gov). Table 3 of the manuscript, lists the cell lines along with the number of the three cell types plated to form the mct-spheroids and media for tumor cell growth. After thawing, all PDC lines, except 997537-175-T-J1-PDC and 415267-285-R-J2-PDC, were cultured in Matrigel-coated flasks prepared with a working solution of 1X Ham's F-12 nutrient mix, without supplementation (Thermo Fisher Scientific, cat. 11765054), 100 U/mL penicillin-streptomycin (Thermo Fisher Scientific, cat. 15140122), and 2.5% Matrigel (Corning Inc., Corning, NY, cat. 354248) for the first three passages. The two PDC lines 997537-175-T-J1-PDC and 415267-285-R-J2-PDC were cultured on uncoated flasks. The 857933-349-R-J2-PDC line was cultured in 6C/Colon 1B media containing advanced DMEM/F-12 (Thermo Fisher Scientific, cat. 12634028), 10 mM HEPES (Thermo Fisher Scientific, cat. 15630080), 1X GlutaMAX supplement (Thermo Fisher Scientific, cat. 35050061), 0.1 mg/mL primocin (InvivoGen, San Diego, CA, cat. ant-pm-2), 10% defined fetal bovine serum, heat inactivated (HyClone Laboratories Inc., Logan, UT, cat. SH30070.03HI), 50% L-WRN conditioned media (ATCC, cat. CRL-3276), 1.25 mM N-Acetyl-L-cysteine (Sigma-Aldrich, cat. A9165), 10 mM nicotinamide (Sigma-Aldrich, cat. N0636), 1X B-27 supplement (Thermo Fisher Scientific, cat. 17504044), 1X N-2 supplement (Thermo Fisher Scientific, cat. […]
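Further: spheroids exposed to drugs for seven days before readout.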
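Wherever viability, T/C is given: percent viability relative to DMSO vehicle control taken as 100%.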

Compound: CC(=O)O[C@H]1C(=O)[C@@]2(C)[C@H]([C@H](OC(=O)c3ccccc3)[C@]3(O)C[C@H](OC(=O)[C@H](O)[C@@H](NC(=O)c4ccccc4)c4ccccc4)C(C)=C1C3(C)C)[C@]1(OC(C)=O)CO[C@@H]1C[C@@H]2O + COC1C(OC(N)=O)C(O)C(Oc2ccc3c(O)c(NC(=O)c4ccc(O)c(CC=C(C)C)c4)c(=O)oc3c2C)OC1(C)C
- IC50 (second compound 0.0316 µM): < 9.49 nM
- IC50 (second compound 0.1 µM): < 9.49 nM
- IC50 (second compound 0.316 µM): < 9.49 nM
- IC50 (second compound 1 µM): < 9.49 nM
- IC50 (second compound 3.16 µM): < 9.49 nM
- IC50 (second compound 10 µM): < 9.49 nM
- viability, T/C (second compound 0.0316 µM, first compound 0.00949 µM): 19.1%
- viability, T/C (second compound 0.0316 µM, first compound 0.03 µM): 6.48%
- viability, T/C (second compound 0.0316 µM, first compound 0.0949 µM): 7.9%
- viability, T/C (second compound 0.0316 µM, first compound 0.3 µM): 9.31%
- viability, T/C (second compound 0.0316 µM, first compound 0.949 µM): 7.71%
- viability, T/C (second compound 0.0316 µM, first compound 3 µM): 5.65%
- viability, T/C (second compound 0.1 µM, first compound 0.00949 µM): 23.8%
- viability, T/C (second compound 0.1 µM, first compound 0.03 µM): 7.55%
- viability, T/C (second compound 0.1 µM, first compound 0.0949 µM): 8.46%
- viability, T/C (second compound 0.1 µM, first compound 0.3 µM): 7.94%
- viability, T/C (second compound 0.1 µM, first compound 0.949 µM): 6.43%
- viability, T/C (second compound 0.1 µM, first compound 3 µM): 6.33%
- viability, T/C (second compound 0.316 µM, first compound 0.00949 µM): 18.3%
- viability, T/C (second compound 0.316 µM, first compound 0.03 µM): 8.15%
- viability, T/C (second compound 0.316 µM, first compound 0.0949 µM): 8.46%
- viability, T/C (second compound 0.316 µM, first compound 0.3 µM): 9.54%
- viability, T/C (second compound 0.316 µM, first compound 0.949 µM): 7.17%
- viability, T/C (second compound 0.316 µM, first compound 3 µM): 6.23%
- viability, T/C (second compound 1 µM, first compound 0.00949 µM): 24.1%
- viability, T/C (second compound 1 µM, first compound 0.03 µM): 9.6%
- viability, T/C (second compound 1 µM, first compound 0.0949 µM): 8.23%
- viability, T/C (second compound 1 µM, first compound 0.3 µM): 7.23%
- viability, T/C (second compound 1 µM, first compound 0.949 µM): 8.2%
- viability, T/C (second compound 1 µM, first compound 3 µM): 6.6%
- viability, T/C (second compound 3.16 µM, first compound 0.00949 µM): 22%
- viability, T/C (second compound 3.16 µM, first compound 0.03 µM): 8.1%
- viability, T/C (second compound 3.16 µM, first compound 0.0949 µM): 9.73%
- viability, T/C (second compound 3.16 µM, first compound 0.3 µM): 8.26%
- viability, T/C (second compound 3.16 µM, first compound 0.949 µM): 6.92%
- viability, T/C (second compound 3.16 µM, first compound 3 µM): 6.09%
- viability, T/C (second compound 10 µM, first compound 0.00949 µM): 18.3%
- viability, T/C (second compound 10 µM, first compound 0.03 µM): 7.78%
- viability, T/C (second compound 10 µM, first compound 0.0949 µM): 7.88%
- viability, T/C (second compound 10 µM, first compound 0.3 µM): 7.81%
- viability, T/C (second compound 10 µM, first compound 0.949 µM): 6.9%
- viability, T/C (second compound 10 µM, first compound 3 µM): 8.24%
